From patent US20100035822A1, “PROLINE-RICH PEPTIDES, PHARMACEUTICAL COMPOSITION, USE OF ONE OR MORE PEPTIDES AND METHOD OF TREATMENT” (priority 2006, published 2010)

Key:
[1] = target: T1, argininosuccinate synthase (AsS) (Mus musculus, UniProt P16460); experiment: Affinity chromatography of mouse kidney extract on peptide column; identification of the bound protein; type: binding; conditions: affinity column with SEQ ID NO 7 as ligand; crude mouse kidney extract
T1 construct: Cytosolic and membrane fractions of the renal extract (100 mg/ml total protein) were applied to separate columns; from tissue; host or cells: Balb-c mouse kidney, cytosolic and membrane fractions
T1 sequence (P16460 1-412): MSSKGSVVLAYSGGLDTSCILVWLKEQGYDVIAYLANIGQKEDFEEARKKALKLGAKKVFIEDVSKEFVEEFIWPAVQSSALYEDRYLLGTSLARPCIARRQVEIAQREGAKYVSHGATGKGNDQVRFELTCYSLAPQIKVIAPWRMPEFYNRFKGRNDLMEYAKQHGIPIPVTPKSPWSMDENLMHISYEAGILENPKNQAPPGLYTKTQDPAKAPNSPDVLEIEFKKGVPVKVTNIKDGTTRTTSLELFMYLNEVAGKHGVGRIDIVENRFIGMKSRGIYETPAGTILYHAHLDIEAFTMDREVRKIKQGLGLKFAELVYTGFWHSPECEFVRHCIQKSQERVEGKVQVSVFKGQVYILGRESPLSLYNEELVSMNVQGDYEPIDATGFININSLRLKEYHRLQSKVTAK
Protocol: Starting material were the cytosolic and plasma membrane crude extracts of mouse kidney cells homogenized in the buffer 10 mM Tris-HCl pH 7.5, 25 mM saccharose, 1 mM EDTA, and 1 mM PMSF (cytosolic fraction), or 1% Triton X-100 (plasma membrane fraction). Supernatants were dialyzed in 0.2 M NaHCO3, 0.5 M NaCl, pH 8.3, and separately applied to the affinity chromatography column Hitrap NHS-activated (GE Healthcare) coupled to 5 mg of peptide SEQ ID NO 7.
Preparing affinity columns. Columns were washed three times with 2 ml 1 mM HCl before homogeneous preparations of SEQ ID NO 7 (5 mg in 1 ml 0.2 M NaHCO3, 0.5 M NaCl, pH 8.3) were applied. After 30 min incubation at room temperature, peptides had been coupled, and the column was inactivated with buffer A (0.5 M ethanolamine, 0.5 M NaCl, pH 8.3), and washed with 0.2 M NaHCO3, 0.5 M NaCl, pH 8.3, and stored at 4° C. in 50 mM Na2HPO4, 0.1%, NaN3, pH 7.0. The columns were called HiTrap-SEQ. ID NO 7. […]
Affinity chromatography and analysis of the retained proteins by SDS-PAGE. […] Protein concentration (mg/ml) was determined by the method of Bradford (Bradford, M. M. A rapid and sensitive method for the quantitation of microgram quantities of protein utilizing the principle of protein-dye binding. Anal. Biochem. 72: 248-254, 1976) with the Protein Assay reagent from BioRad. […]

normotensive Wistar rats = type: in vivo, rat; conditions: 10 μmoles/Kg of body weight i.v.; 6 hours
Protocol: In vivo studies on the effect of peptides of the present invention were performed on adult male spontaneously hypertensive rats, and normotensive Wistar rats (Rattus novergicus) weighing 250 to 350 g. Animals had free access to chow (Nuvilab) and water, and were submitted to a light-dark cycle of 12 hours each. Procedures involving animals and their care were conducted according to Giles [Giles A. R. Guidelines for the use of animals in biomedical research. Thromb. Haemost. 58: 1078-1084, 1987].
Before drug administration, cardiovascular parameters of the rats were monitored for 40 minutes. Intravenous (I.V.) injection of Ang I (100 ng) was performed in bolus in a total volume of 0.1 mL. 60 minutes after the start of register, 71 nmoles/Kg body weight of peptides SEQ ID NO 8 or SEQ ID NO 4, or captopril were administered I.V. in a total volume of 0.5 mL of 0.9% NaCl solution. […] Arterial blood pressure and heart frequency were continuously monitored for 360 minutes.
Adult male Wistar normotensive rats, weighing between 250 and 350 g, were used in the experimental evaluation of the hypotensive effect of SEQ ID NO 8, as described in Example 12. An i.v. dose of 10 μmoles/Kg of body weight of peptide SEQ ID NO 8 was injected, and arterial blood pressure was monitored for 6 hours (results not shown).

## <ENWPHPQIPP [SEQ ID NO 8]
[1]
  binding to the approx. 46 kDa protein (AsS) of mouse kidney extract: capable of selectively binding
Normotensive Wistar rats
  hypotensive effect in normotensive rats: no significant hypotensive effect
